# From article PMC10141580, “Cyclic Dichalcogenides Extend the Reach of Bioreductive Prodrugs to Harness Thiol/Disulfide Oxidoreductases: Applications to seco-Duocarmycins Targeting the Thioredoxin System” (ACS Central Science, 2023)
# “And” between values parts separate entries of the source, which are not always exact repeats. Equal values may be shown once. Read-outs that look alike come from different tables or passages of the source.
# System: NCI-60 standardized human tumor cell line panel
# Assay: cells
# Assay type: cell-based
smiles,measurement,setting,value
COc1cc2cc(C(=O)N3C[C@@H](CCl)c4c3cc(OC(=O)N(CCC(=O)N3CCN(C)CC3)C3CCCCC3)c3ccccc43)[nH]c2c(OC)c1OC [P-CC60-CBI-TMI],NCI-60 screening: Log(GI50),,-5.81 and -5.62
same,NCI-60 screening: Log(GI50),"786-0 (RE) cell line, log10 of GI50 in M",-5.76
same,GI50,"786-0 (RE) cell line, read-out: NCI-60 screening: Raw GI50",1700 nM
same,GI50,"786-0, read-out: GI50",1700 nM
same,NCI-60 screening: Log(GI50),"A498 (RE) cell line, log10 of GI50 in M",-5.56
same,GI50,"A498 (RE) cell line, read-out: NCI-60 screening: Raw GI50",2800 nM
same,GI50,"A498, read-out: GI50",2800 nM
same,GI50,"A549/ATCC, read-out: GI50",2000 nM
same,NCI-60 screening: Log(GI50),"ACHN (RE) cell line, log10 of GI50 in M",-6.31
same,GI50,"ACHN, read-out: GI50",490 nM
same,GI50,"BT-549, read-out: GI50",1600 nM
same,NCI-60 screening: Log(GI50),"CAKI-1 (RE) cell line, log10 of GI50 in M",-5.83
same,GI50,"CAKI-1 (RE) cell line, read-out: NCI-60 screening: Raw GI50",1500 nM
same,GI50,"CAKI-1, read-out: GI50",1500 nM
same,GI50,"CCRF-CEM, read-out: GI50",990 nM
same,GI50,"COLO 205, read-out: GI50",1400 nM
same,NCI-60 screening: Log(GI50),"DU-145 (PR) cell line, log10 of GI50 in M",-6.34
same,GI50,"DU-145, read-out: GI50",460 nM
same,GI50,"EKVX, read-out: GI50",1900 nM
same,GI50,"HCC-2998, read-out: GI50",1500 nM
same,GI50,"HCT-15, read-out: GI50",1700 nM
same,GI50,"HCT-116, read-out: GI50",1500 nM
same,GI50,"HL-60(TB), read-out: GI50",750 nM
same,GI50,"HOP-62, read-out: GI50",590 nM
same,GI50,"HOP-92, read-out: GI50",2500 nM
same,GI50,"HT29, read-out: GI50",1500 nM
same,NCI-60 screening: Log(GI50),"IGROV1 (OV) cell line, log10 of GI50 in M",-5.64
same,GI50,"IGROV1 (OV) cell line, read-out: NCI-60 screening: Raw GI50",2300 nM
same,GI50,"IGROV1, read-out: GI50",2300 nM
same,GI50,"K-562, read-out: GI50",680 nM
same,GI50,"KM12, read-out: GI50",2100 nM
same,GI50,"LOX IMVI, read-out: GI50",1100 nM
same,GI50,"M14, read-out: GI50",1500 nM
same,GI50,"MALME-3M, read-out: GI50",1600 nM
same,GI50,"MCF7, read-out: GI50",320 nM
same,GI50,"MDA-MB-435, read-out: GI50",1800 nM
same,GI50,"MDA-MB-468, read-out: GI50",690 nM
same,GI50,"MOLT-4, read-out: GI50",590 nM
same,"GI50/IC50, mean","NCI-60 vs ProliFiler, 19 overlapping cell lines",4.6
same,GI50,"NCI-H23, read-out: GI50",470 nM
same,GI50,"NCI-H226, read-out: GI50",1400 nM
same,NCI-60 screening: Log(GI50),"NCI-H460 (LC) cell line, log10 of GI50 in M",-6.29
same,GI50,"NCI-H460, read-out: GI50",510 nM
same,NCI-60 screening: Log(GI50),"NCI-H522 (LC) cell line, log10 of GI50 in M",-5.77
same,GI50,"NCI-H522 (LC) cell line, read-out: NCI-60 screening: Raw GI50",1700 nM
same,GI50,"NCI-H522, read-out: GI50",1700 nM
same,NCI-60 screening: Log(GI50),"OVCAR-3 (OV) cell line, log10 of GI50 in M",-5.68
same,GI50,"OVCAR-3 (OV) cell line, read-out: NCI-60 screening: Raw GI50",2100 nM
same,GI50,"OVCAR-3, read-out: GI50",2100 nM
same,NCI-60 screening: Log(GI50),"OVCAR-4 (OV) cell line, log10 of GI50 in M",-5.63
same,GI50,"OVCAR-4 (OV) cell line, read-out: NCI-60 screening: Raw GI50",2300 nM
same,GI50,"OVCAR-4, read-out: GI50",2300 nM
same,NCI-60 screening: Log(GI50),"OVCAR-5 (OV) cell line, log10 of GI50 in M",-5.29
same,GI50,"OVCAR-5, read-out: GI50",5100 nM
same,NCI-60 screening: Log(GI50),"OVCAR-8 (OV) cell line, log10 of GI50 in M",-5.78
same,GI50,"OVCAR-8 (OV) cell line, read-out: NCI-60 screening: Raw GI50",1700 nM
same,GI50,"OVCAR-8, read-out: GI50",1700 nM
same,NCI-60 screening: Log(GI50),"PC-3 (PR) cell line, log10 of GI50 in M",-5.5
same,GI50,"PC-3, read-out: GI50",3100 nM
same,GI50,"RPMI-8226, read-out: GI50",1500 nM
same,NCI-60 screening: Log(GI50),"RXF 393 (RE) cell line, log10 of GI50 in M",-5.97
same,GI50,"RXF 393 (RE) cell line, read-out: NCI-60 screening: Raw GI50",1100 nM
same,GI50,"RXF 393, read-out: GI50",1100 nM
same,GI50,"SF-268, read-out: GI50",1500 nM
same,GI50,"SF-295, read-out: GI50",1500 nM
same,GI50,"SF-539, read-out: GI50",1300 nM
same,GI50,"SK-MEL-5, read-out: GI50",1600 nM
same,GI50,"SK-MEL-28, read-out: GI50",3600 nM
same,NCI-60 screening: Log(GI50),"SK-OV-3 (OV) cell line, log10 of GI50 in M",-5.67
same,GI50,"SK-OV-3 (OV) cell line, read-out: NCI-60 screening: Raw GI50",2200 nM
same,GI50,"SK-OV-3, read-out: GI50",2200 nM
same,NCI-60 screening: Log(GI50),"SN12C (RE) cell line, log10 of GI50 in M",-5.92
